For 15 compounds, IC50 results are on record in patent US20090082329A1 (AVENTIS PHARMA S.A., priority 2006, published 2009).

Read-outs that look alike come from different tables or passages of the source.

The subject of one experiment is MEF-IGF1R cells. The experiment in a line: Proliferation/viability of MEF-IGF1R (Thymidine [14C] incorporation). It is filed as cell-based. Particulars: rhIGF1 100 ng/mL, incubation 72 hours, read-out: Test C IC50. The protocol:
C) Measurement of the Proliferation/Viability of MEF-IGF1R
Cell culture: the MEF-IGF1R cells (stable clone of cells transfected with the receptor hIGF-1R) are cultured at 37° C. under 5% CO2 in EMEM medium containing 10% FCS.
Test procedure: the cells are seeded at 5000 cells per well in 96-well Cytostar plates (Amersham) with 0.2 mL of EMEM culture medium at 37° C. for 18 hours. The cells are then washed twice with EMEM medium and left to culture without serum for 24 hours. The compounds are then added at various concentrations in the presence of rhIGF1 (100 ng/mL) and 0.1 μCi of Thymidine [^14C] (specific activity ˜50 mCi/mmol) to give 0.2 mL of volume per well. After incubation for 72 hours in the presence of the compound, at 37° C. under 5% CO2, the incorporation of Thymidine [^14C] is measured by counting the radioactivity on a Microbeta trilux counter (Perkin-Elmer). The IC50 is determined from 10 increasing concentrations of the compound.
(§1) (i) The tests are performed in duplicate and the mean of the two tests is calculated.
(§2) (ii) The value of the signal of the maximum response is calculated from the positive control: cells stimulated with IGF1 without compound.
(§3) (iii) Value of the signal of the minimum response is calculated from the negative control: cells not stimulated with IGF1 without compound.
(§4) (iv) By using these values as maximum (100%) and minimum (0%), respectively, the data were normalized so as to give a percentage of the maximum response.
(§5) (v) A curve of dose response is plotted and the IC50 (the concentration of which the compound induces a 50% decrease in the signal) of the compound is calculated by non-linear regression analysis.

The target in experiment [1] is T1, human cytoplasmic domain of IGF-1R (Homo sapiens, UniProt P08069).
T1 construct: The human cytoplasmic domain of IGF-1R was cloned by fusion with glutathione S-transferase (GST); made in house; host or cells: SF21 insect cells (baculovirus, pFastBac-GST)
T1 sequence (P08069 960-1367 limits assumed): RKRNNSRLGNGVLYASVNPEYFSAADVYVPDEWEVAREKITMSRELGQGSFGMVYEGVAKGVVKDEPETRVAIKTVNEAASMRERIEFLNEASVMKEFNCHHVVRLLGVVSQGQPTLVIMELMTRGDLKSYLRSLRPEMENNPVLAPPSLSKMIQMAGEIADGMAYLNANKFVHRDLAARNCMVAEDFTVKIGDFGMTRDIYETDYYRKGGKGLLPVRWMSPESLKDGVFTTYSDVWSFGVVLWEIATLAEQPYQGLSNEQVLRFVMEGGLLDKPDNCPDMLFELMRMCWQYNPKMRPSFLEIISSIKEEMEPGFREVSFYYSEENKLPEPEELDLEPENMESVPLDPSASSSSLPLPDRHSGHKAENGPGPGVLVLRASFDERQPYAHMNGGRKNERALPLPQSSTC
As to the kind of experiment: Kinase IGF-1R test: inhibition of autophosphorylation of the enzyme (HTRF). Type of experiment: biochemical. The note with it: ATP 120 μM. The method, then:
A) Experimental Protocol for the Kinase IGF-1R Test:
The inhibitory activity of the compounds on IGF1R is determined by measuring the inhibition of autophosphorylation of the enzyme using a time-resolved fluorescence test (HTRF). The human cytoplasmic domain of IGF-1R was cloned by fusion with glutathione S-transferase (GST) in the baculovirus expression vector pFastBac-GST. The protein is expressed in the SF21 cells and purified to about 80% homogeneity. For the enzymatic test, the test compound at 10 mM dissolved in DMSO is diluted in ⅓ steps in a 50 mM Hepes, pH 7.5, 5 mM MnCl2, 50 mM NaCl, 3% Glycerol, 0.025% Tween 20 buffer. To measure the inhibition, the successive dilutions of the compound are preincubated for 30 minutes and 90 minutes in the presence of 5 nM of enzyme, the final DMSO concentration not exceeding 1%. The enzymatic reaction is initiated to have a final ATP concentration of 120 μM, and is stopped after 5 minutes by addition of 100 mM Hepes, pH 7.0 buffer containing 0.4 M of potassium fluoride, 133 mM EDTA, 0.1% BSA, the XL665-labelled antibody anti-GST and the anti-phosphotyrosine antibody conjugated to europium cryptate Eu—K (Cis-Bio Int.). The characteristics of the two fluorophores, XL-665 and Eu—K, are available in G. Mathis et al., Anticancer Research, 1997, 17, pages 3011-3014. The energy transfer between the excited europium cryptate to the acceptor XL665 is proportional to the degree of autophosphorylation of IGF-1R. The specific long-lasting signal of XL-665 is measured in a GENios Pro TECAN plate counter. The inhibition of autophosphorylation of IGF-1R at time 30 minutes and 90 minutes with the test compounds of the invention is calculated relative to a 1% in DMSO control, whose activity is measured in the absence of compound. The curve representing the percentage of inhibition as a function of the log of the concentration is established to determine the concentration corresponding to 50% inhibition (IC50),
A general note: TR-FRET usually uses a lanthanide donor and a delayed reading to cut background.

A further experiment concerns the target IGF-1R in MCF7 cells (Homo sapiens, UniProt P08069). As to the kind of experiment: Autophosphorylation of IGF-1R in MCF7 cells after stimulation with IGF-1 (ELISA). Type of experiment: cell-based. On the set-up: endogenous in cells; host or cells: MCF-7 cells. The note with it: MCF-7 cells, compound added one hour before stimulation with IGF1; read-out: Test B IC50. The protocol:
B) Measurement of the Autophosphorylation of IGF-1R in MCF7 Cells after Stimulation with IGF-1
Cell Culturing and Execution of the Test:
The autophosphorylation of IGF1R in the IGF1-induced cells is evaluated by means of an ELISA technique (Enzyme Linked ImmunoSorbent Assay). The MCF-7 are seeded at 60 000 cells per well in 6-well plates and incubated at 37° C., 5% CO2 in medium containing 10% serum. After one night in 10% serum, the cells are deprived of serum for 24 hours. The compounds are added to the medium one hour before stimulation with IGF1. After 10 minutes of stimulation with IGF1, the cells are lysed with a buffer (Hepes 50 mM pH 7.6, Triton X100 1%, orthovanadate 2 mM, protease inhibitor cocktail). The cell lysates are incubated on a 96-well plate precoated with an anti-IGF1R antibody, followed by incubation with an anti-phosphotyrosine antibody coupled to the enzyme peroxidase. The level of peroxidase activity (measured by OD with a luminescent substrate) reflects the phosphorylation status of the receptor.
as §1, §2, §3, §4, §5
(An ELISA detects its analyte on a solid surface through an enzyme-linked reagent.)

The mark [2] stands for this setting: preincubation 30 minutes with 5 nM enzyme, read-out: Test A 30′ IC50.
Setting [3] is: preincubation 90 minutes with 5 nM enzyme, read-out: Test A 90′ IC50.

Sequence of IGF-1R in MCF7 cells (P08069 31-1367): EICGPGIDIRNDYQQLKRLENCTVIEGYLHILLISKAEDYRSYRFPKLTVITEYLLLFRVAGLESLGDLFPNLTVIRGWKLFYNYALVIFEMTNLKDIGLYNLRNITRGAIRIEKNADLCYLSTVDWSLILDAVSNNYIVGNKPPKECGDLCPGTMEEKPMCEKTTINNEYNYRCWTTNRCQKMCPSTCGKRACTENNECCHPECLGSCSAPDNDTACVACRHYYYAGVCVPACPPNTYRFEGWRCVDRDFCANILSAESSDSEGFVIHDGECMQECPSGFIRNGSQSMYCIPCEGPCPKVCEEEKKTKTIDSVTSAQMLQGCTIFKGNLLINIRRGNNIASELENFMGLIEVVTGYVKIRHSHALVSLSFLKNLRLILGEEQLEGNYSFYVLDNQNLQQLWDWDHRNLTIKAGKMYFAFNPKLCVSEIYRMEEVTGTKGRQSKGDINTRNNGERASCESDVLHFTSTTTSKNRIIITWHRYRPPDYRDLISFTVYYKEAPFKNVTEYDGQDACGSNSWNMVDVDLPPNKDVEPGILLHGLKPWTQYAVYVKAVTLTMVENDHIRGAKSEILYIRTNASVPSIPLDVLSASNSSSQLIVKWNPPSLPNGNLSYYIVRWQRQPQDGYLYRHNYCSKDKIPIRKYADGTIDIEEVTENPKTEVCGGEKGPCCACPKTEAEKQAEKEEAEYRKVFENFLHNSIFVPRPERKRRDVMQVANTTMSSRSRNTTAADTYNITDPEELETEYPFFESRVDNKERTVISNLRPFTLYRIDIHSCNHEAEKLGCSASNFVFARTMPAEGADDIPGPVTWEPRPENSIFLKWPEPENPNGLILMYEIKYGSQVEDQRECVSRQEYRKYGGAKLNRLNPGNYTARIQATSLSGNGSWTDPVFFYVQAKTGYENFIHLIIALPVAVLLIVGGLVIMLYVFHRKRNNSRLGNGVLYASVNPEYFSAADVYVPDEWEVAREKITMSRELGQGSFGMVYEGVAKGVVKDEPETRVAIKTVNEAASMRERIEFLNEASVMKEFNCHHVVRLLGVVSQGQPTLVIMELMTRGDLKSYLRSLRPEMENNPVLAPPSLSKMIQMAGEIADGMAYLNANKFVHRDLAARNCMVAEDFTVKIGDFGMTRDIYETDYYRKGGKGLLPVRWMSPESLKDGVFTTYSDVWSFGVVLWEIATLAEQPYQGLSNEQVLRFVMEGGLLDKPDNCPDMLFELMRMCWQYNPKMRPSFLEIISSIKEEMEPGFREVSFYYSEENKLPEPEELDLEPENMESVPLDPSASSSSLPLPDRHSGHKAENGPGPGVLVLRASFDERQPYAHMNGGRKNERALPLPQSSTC

In the case of `CC1(C)C(=O)N(c2ccc(SC(F)(F)F)cc2)C(=O)N1Cc1ccnc(Nc2cc(F)ccc2F)c1` [Example 5, 1-({2-[(2,5-difluorophenyl)amino]pyridin-4-yl}-methyl)-5,5-dimethyl-3-{4-[(trifluoromethyl)thio]phenyl}imidazolidine-2,4-dione], the figures for the IC50 (with MEF-IGF1R cells; in experiment [1] (setting [2]); at IGF-1R in MCF7 cells) were 10 to 100 nM, 10 to 100 nM and > 100 nM, respectively.
`CC1(C)C(=O)N(c2ccc(SC(F)(F)F)cc2)C(=O)N1Cc1ccnc(Nc2ccc(Cl)nc2)c1` [Example 40F, 1-({2-[(6-chloropyridin-3-yl)amino]pyridin-4-yl}-methyl)-5,5-dimethyl-3-{4-[(trifluoromethyl)thio]phenyl}imidazolidine-2,4-dione]: the IC50 (usually the midpoint of a concentration-inhibition curve) in the experiment on MEF-IGF1R cells is > 100 nM; in experiment [1] (setting [2]), > 100 nM; in experiment [1] (setting [3]), 10 to 100 nM; at IGF-1R in MCF7 cells it was > 100 nM.
As for `CC1(C)C(=O)N(c2ccc(SC(F)(F)F)cc2)C(=O)N1Cc1ccnc(NC(=O)c2ccc(Cl)c(Cl)c2)c1` [Example 3, 3,4-dichloro-N-{4-[(5,5-dimethyl-2,4-dioxo-3-{4-[(trifluoromethyl)thio]phenyl}imidazolidin-1-yl)methyl]pyridin-2-yl}benzamide], the IC50 with MEF-IGF1R cells was 10 to 100 nM; in experiment [1] (setting [2]), > 100 nM; in experiment [1] (setting [3]), > 100 nM; at IGF-1R in MCF7 cells it was > 100 nM.
In the case of `CC1(C)C(=O)N(c2ccc(SC(F)(F)F)cc2)C(=O)N1Cc1ccnc(NC(=O)NC2CCCCC2)c1` [Example 25, 1-cyclohexyl-3-{4-[(5,5-dimethyl-2,4-dioxo-3-{4-[(trifluoromethyl)thio]phenyl}imidazolidin-1-yl)methyl]pyridin-2-yl}urea], the IC50 with MEF-IGF1R cells was > 100 nM; in experiment [1] (setting [2]) it was > 100 nM; in experiment [1] (setting [3]), 10 to 100 nM.
As for “1-{4-[(5,5-dimethyl-2,4-dioxo-3-{4-[(trifluoro-methyl)thio]phenyl}imidazolidin-1-yl)methyl]pyridin-2-yl}-3-(2-morpholin-4-ylethyl)urea [Example 33]”, the half-maximal inhibitory concentration (IC50) was > 100 nM in the experiment on MEF-IGF1R cells, 10 to 100 nM in experiment [1] (setting [2]) and 10 to 100 nM in experiment [1] (setting [3]).
For `CC1(C)C(=O)N(c2ccc(SC(F)(F)F)cc2)C(=O)N1Cc1ccnc(NC(=O)N2CCC2)c1` [Example 27, N-{4-[(5,5-dimethyl-2,4-dioxo-3-{4-[(trifluoro-methyl)thio]phenyl}imidazolidin-1-yl)methyl]pyridin-2-yl}azetidine-1-carboxamide], the IC50 in the experiment with MEF-IGF1R cells was < 10 nM; in experiment [1] (setting [2]), 10 to 100 nM; in experiment [1] (setting [3]) it was 10 to 100 nM; at IGF-1R in MCF7 cells it was 10 to 100 nM.
For `CC1(C)C(=O)N(c2ccc(SC(F)(F)F)cc2)C(=O)N1Cc1ccnc(Nc2cncc(F)c2)c1` [Example 17, 1-({2-[(5-fluoropyridin-3-yl)amino]pyridin-4-yl}-methyl)-5,5-dimethyl-3-{4-[(trifluoromethyl)thio]phenyl}imidazolidine-2,4-dione], the figures for the IC50 (in the experiment with MEF-IGF1R cells; in experiment [1] (setting [2]); in experiment [1] (setting [3])) were > 100 nM, > 100 nM and 10 to 100 nM, respectively.
Regarding `CN(C)C(=O)Nc1nccc(CN2C(=O)N(c3ccc(S(=O)(=O)C(F)(F)F)cc3)C(=O)C2(C)C)n1` [Example 12, 3-{4-[(5,5-dimethyl-2,4-dioxo-3-{4-[(trifluoro-methyl)sulfonyl]phenyl}imidazolidin-1-yl)methyl]pyrimidin-2-yl}-1,1-dimethylurea], the IC50 (in the experiment with MEF-IGF1R cells; in experiment [1] (setting [2]); in experiment [1] (setting [3])) was > 100 nM throughout.
In the case of `CN(C)CCCCNC(=O)Nc1cc(CN2C(=O)N(c3ccc(SC(F)(F)F)cc3)C(=O)C2(C)C)ccn1` [Example 40, 1-[4-(dimethylamino)butyl]-3-{4-[(5,5-dimethyl-2,4-dioxo-3-{4-[(trifluoromethyl)thio]phenyl}imidazolidin-1-yl)-methyl]pyridin-2-yl}urea], the figures for the IC50 (with MEF-IGF1R cells; in experiment [1] (setting [2]); in experiment [1] (setting [3])) were > 100 nM, 10 to 100 nM and < 10 nM, respectively.
On the same counts, the results for `CC1(C)C(=O)N(c2ccc(SC(F)(F)F)cc2)C(=O)N1Cc1ccnc(NC(=O)NCCN2CCCCC2)c1` [Example 31, 1-{4-[(5,5-dimethyl-2,4-dioxo-3-{4-[(trifluoro-methyl)thio]phenyl}imidazolidin-1-yl)methyl]pyridin-2-yl}-3-(2-piperidin-1-ylethyl)urea] are > 100 nM, > 100 nM and 10 to 100 nM.
Take `CC1(C)C(=O)N(c2ccc(SC(F)(F)F)cc2)C(=O)N1Cc1ccnc(NC(=O)NC2CC(CO)C2)c1` (mixture of isomers) [Example 40B Stage a), 1-{4-[(5,5-dimethyl-2,4-dioxo-3-{4-[(trifluoro-methyl)thio]phenyl}imidazolidin-1-yl)methyl]pyridin-2-yl}-3-[3-(hydroxymethyl)cyclobutyl]urea]: the IC50 was 10 to 100 nM in experiment [1] (setting [2]) and < 10 nM in experiment [1] (setting [3]).
“1-{4-[(5,5-dimethyl-2,4-dioxo-3-{4-[(trifluoro-methyl)thio]phenyl}imidazolidin-1-yl)methyl]pyridin-2-yl}-3-[2-(4-methylpiperazin-1-yl)ethyl]urea [Example 32]”: the IC50 with MEF-IGF1R cells was > 100 nM; in experiment [1] (setting [2]), 10 to 100 nM; in experiment [1] (setting [3]), 10 to 100 nM.
Turning to `CN(C)C(=O)Nc1nccc(CN2C(=O)N(c3ccc(SC(F)(F)F)cc3)C(=O)C2(C)C)n1` [Example 10, 3-{4-[(5,5-dimethyl-2,4-dioxo-3-{4-[(trifluoro-methyl)thio]phenyl}imidazolidin-1-yl)methyl]pyrimidin-2-yl}-1,1-dimethylurea], the IC50 (in the experiment with MEF-IGF1R cells; in experiment [1] (setting [2]); in experiment [1] (setting [3])) was > 100 nM in each case.
In the case of `CCCCNC(=O)Nc1cc(CN2C(=O)N(c3ccc(SC(F)(F)F)cc3)C(=O)C2(C)C)ccn1` [Example 37, 1-butyl-3-{4-[(5,5-dimethyl-2,4-dioxo-3-{4-[(tri-fluoromethyl)thio]phenyl}imidazolidin-1-yl)methyl]pyridin-2-yl}urea], the concentration for half-maximal inhibition (IC50) with MEF-IGF1R cells is 10 to 100 nM; in experiment [1] (setting [2]), > 100 nM; in experiment [1] (setting [3]), 10 to 100 nM.
As for `CN(C)CCCNC(=O)Nc1cc(CN2C(=O)N(c3ccc(SC(F)(F)F)cc3)C(=O)C2(C)C)ccn1` [Example 38, 1-[3-(dimethylamino)propyl]-3-{4-[(5,5-dimethyl-2,4-dioxo-3-{4-[(trifluoromethyl)thio]phenyl}imidazolidin-1-yl)methyl]pyridin-2-yl}urea], the IC50 in the experiment on MEF-IGF1R cells was > 100 nM; in experiment [1] (setting [2]), 10 to 100 nM; in experiment [1] (setting [3]), 10 to 100 nM.
